Results taken from patent US20220073496A1, “NOVEL QUINOLINE DERIVATIVE INHIBITOR” (Nanjing Transthera Biosciences Co., Ltd., priority 2018, published 2022).
Read-outs that look alike come from different tables or passages of the source.

Legend:
Rat PK evaluation = assay type: in vivo; conditions: SD rats; for Vz_obs iv (apparent distribution volume) / bioavailability / AUC(0-t) / clearance / half-life: n = 3; for bioavailability / AUC(0-t) / clearance / half-life / Tmax: rat, plasma; for bioavailability: read-out: F % (absolute bioavailability); for clearance: read-out: Cl_obs iv (clearance rate) (converted); for Tmax: n = 3, median, read-out: Tmax po (time to peak plasma concentration)
Method: Assay 2: Rat PK Evaluation for the Compounds of the Present Invention
Animal Administration and Sample Collection:
The test compounds 14, 15, 16, 20, 29, 30, 31, 32, 33, 34, 36, 37, 47 and 48 were dissolved in 5% DMSO+20% (30% solutol)+75% saline to prepare the compound solutions. Each of the compound solutions was intragastrically administered to SD rats at a dose of 5.0 mg/kg. The time points of blood collection were: 15 minutes, 30 minutes, 1 hour, 2 hours, 4 hours, 6 hours, 8 hours, 24 hours, 30 hours, and 48 hours.
The test compounds 38, 39, 40 and 41 were dissolved in 5% NMP+5% Tween-80+90% saline to prepare the compound solutions. Each of the compound solutions was intragastrically administered to SD rats at a dose of 5.0 mg/kg. The time points of blood collection were: 15 minutes, 30 minutes, 1 hour, 2 hours. 4 hours, 6 hours, 8 hours, 24 hours, 30 hours, and 48 hours.
The test compounds 14, 15, 16, 20, 29, 30, 31, 32, 33, 34, 36, 37, 47 and 48 were dissolved in 5% DMSO+20% (30% solutol)+75% saline to prepare the compound solutions. Each of the compound solutions was administered by intravenous bolus injection to SD rats at a dose of 1 mg/kg. The time points of blood collection were: 5 minutes, 15 minutes, 30 minutes, 1 hour, 2 hours, 4 hours, 6 hours, 8 hours, 24 hours, and 48 hours.
The test compounds 38, 39, 40 and 41 were dissolved in 5% NMP+5% Tween-80+90% saline to prepare the compound solutions. Each of the compound solutions was administered by intravenous bolus injection to SD rats at a dose of 1 mg/kg. The time points of blood collection were: 5 minutes, 15 minutes, 30 minutes, 1 hour, 2 hours, 4 hours, 6 hours, 8 hours, 24 hours, and 48 hours.
The animal was fixed. The tail was heated in a water bath pot 10 minutes before each time point. About 100 μL of blood was collected through the tail vein. The blood was collected and placed in an anti-coagulation tube containing EDTA-K2. The blood sample was centrifuged at 8000 rpm for 6 minutes at 4° C. to obtain a plasma sample. The plasma was prepared within 30 minutes after the blood collection. The plasma was stored in a −80° C. refrigerator before testing.
The sample to be tested was taken out from the −80° C. refrigerator, naturally melted at room temperature and vortexed for 5 minutes. 20 μL of plasma sample was accurately pipetted into a 1.5 mL centrifuge tube. 200 μL of an internal standard working solution (a solution of tolbutamide in methanol) having a concentration of 100 ng/mL was added and mixed well. The mixture was vortexed for 5 minutes, and centrifuged at 12000 rpm for 5 minutes. 50 μL of the supernatant was accurately pipetted into a 96-well plate pre-filled with 150 μL/well of water. The plate was vortexed for 5 minutes and mixed well, and then the LC-MS/MS determination and analysis were performed.
The concentration of the test substance was output using Analyst 1.6.3 from AB Company. Parameters such as mean, standard deviation, and coefficient of variation were calculated with Microsoft Excel (direct outputs from Analyst 1.6.3 were not calculated), and the PK parameters were calculated using Pharsight Phoenix 6.1 software NCA (Tmax was the median).

TrkC (h) = biological target: T1, TrkC (h) (Homo sapiens, UniProt Q16288); test: Enzymatic activity test, TrkC (h); assay type: biochemical; conditions: 10 μM [γ-33P]-ATP, 40 minutes, room temperature
T1 construct: purchased
Method: Assay 4: Enzymatic Activity Test of the Compound of the Present Invention
Test substances: the compounds of the present invention, wherein the structures and preparations thereof were as described above.
Preparation of the Compound Stock Solution
The compound was dissolved in 100% DMSO to prepare a stock solution with a maximum concentration of 500 μM.
Preparation of the Compound Working Solution
The compound stock solution was diluted to final concentrations of 500, 150, 50, 15. 5, 1.5, 0.5, 0.15 and 0.05 μM to become the compound working solutions (50×).
Preparation of Different Enzyme Reaction Solutions
The TrkC (h) enzyme was dissolved in 8 mM MOPS (pH 7.0), 0.2 mM EDTA, and 500 μM GEEPLYWSFPAKKK to prepare an enzyme solution having a final concentration of 38 nM. The enzymatic reaction was activated by using 10 mM magnesium acetate and 10 μM [γ-^33P]-ATP to form an Mg/ATP mixed solution.
In a 384-well plate, the compound working solution was added to final concentrations of 10000, 3000, 1000, 300, 100, 30, 10, 3, and 1 nM. Then different enzyme reaction solutions prepared according to the above conditions were added. The incubation was carried out for 40 minutes at room temperature. The test was terminated by the addition of a 0.5% phosphoric acid solution. 10 μL of the reaction solution was taken and dropped to the P30 filter paper. The filter paper was washed 4 times with 0.425% phosphoric acid solution and once with methanol, and then placed on a scintillation counter. The […] IC50 values were calculated using GraphPad 5.0 software.

[1] = biological target: T2, Ba/F3 LMNA-NTRK1 G667C cells (Homo sapiens, UniProt P04629, G667C, cells depend on it); test: Cell viability test (CTG), Ba/F3 LMNA-NTRK1 G667C; assay type: cell-based; conditions: NTRK1 gene mutant cell, 72 hours, read-out: IC50 Ba/F3 LMNA-NTRK1 G667C
T2 construct: Ba/F3 LMNA-NTRK1 G667C and Ba/F3 LMNA-NTRK1-V573M are NTRK1 gene mutant cells; fused on or other part: P02545 (Prelamin-A/C)
From the text: Assay 8: Cell viability test of the compounds of the present invention
Ba/F3 LMNA-NTRK1 G667C and Ba/F3 LMNA-NTRK1-V573M are NTRK1 gene mutant cells.
Test substances: the compounds of the present invention, wherein the structures thereof were as described above.
Test instrument: SpectraMax multi-label microplate reader.
Each cell was inoculated in a 96-well plate and adherent cells were cultivated overnight. Different concentrations of the compounds (9 dose groups, 3.16 times DMSO serial dilution) were added to give the final concentration of 0.1-1000 nM, and the final DMSO content was 1‰. The negative control wells contained the medium containing 1‰ DMSO. The cells were incubated at 37° C. in a condition of 5% CO2 and 95% humidity for 72 hours for use. An equal volume of CTG reagent was added to each well, and the cells were lysed by shaking for 5 minutes on an orbital shaker, and incubated for 20 minutes at room temperature to stabilize the cold light signal. The cold light signal was read with a microplate reader. Data were analyzed using GraphPad Prism 5.0 software, and data were fitted using nonlinear S-curve regression to derive a dose-response curve and thereby calculate IC50 values.

[2] = IV 1 mg/kg, read-out: AUClast iv (area under the drug-time curve from 0 to 48 hours)
[3] = IV 1 mg/kg, read-out: tz1/2 iv (terminal elimination half-life) (converted)
[4] = PO 5 mg/kg, read-out: AUClast po (area under the drug-time curve from 0 to 48 hours)
[5] = PO 5 mg/kg, read-out: tz1/2 po (terminal elimination half-life) (converted)

T1 sequence (Q16288 32-839): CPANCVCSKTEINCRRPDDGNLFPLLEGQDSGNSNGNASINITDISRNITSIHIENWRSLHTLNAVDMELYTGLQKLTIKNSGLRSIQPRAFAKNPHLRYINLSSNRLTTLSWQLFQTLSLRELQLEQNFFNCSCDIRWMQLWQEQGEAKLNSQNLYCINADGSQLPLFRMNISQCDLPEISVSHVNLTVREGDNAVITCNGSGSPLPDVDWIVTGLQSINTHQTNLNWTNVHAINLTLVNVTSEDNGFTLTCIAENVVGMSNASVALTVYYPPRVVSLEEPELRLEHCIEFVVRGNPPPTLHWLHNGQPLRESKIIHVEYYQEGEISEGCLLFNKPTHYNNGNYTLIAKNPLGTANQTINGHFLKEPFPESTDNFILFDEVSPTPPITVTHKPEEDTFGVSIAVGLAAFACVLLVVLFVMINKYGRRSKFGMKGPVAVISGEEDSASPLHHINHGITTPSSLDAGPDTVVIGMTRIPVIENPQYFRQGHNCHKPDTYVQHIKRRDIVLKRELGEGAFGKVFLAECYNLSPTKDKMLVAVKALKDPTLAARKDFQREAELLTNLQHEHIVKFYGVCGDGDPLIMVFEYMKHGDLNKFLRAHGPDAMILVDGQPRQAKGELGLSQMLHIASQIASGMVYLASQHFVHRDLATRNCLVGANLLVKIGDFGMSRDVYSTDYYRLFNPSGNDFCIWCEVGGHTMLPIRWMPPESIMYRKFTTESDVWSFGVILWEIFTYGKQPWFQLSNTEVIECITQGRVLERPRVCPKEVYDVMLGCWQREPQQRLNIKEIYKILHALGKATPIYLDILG
T2 sequence (P04629 whole entry G667C, the tested form may be a part): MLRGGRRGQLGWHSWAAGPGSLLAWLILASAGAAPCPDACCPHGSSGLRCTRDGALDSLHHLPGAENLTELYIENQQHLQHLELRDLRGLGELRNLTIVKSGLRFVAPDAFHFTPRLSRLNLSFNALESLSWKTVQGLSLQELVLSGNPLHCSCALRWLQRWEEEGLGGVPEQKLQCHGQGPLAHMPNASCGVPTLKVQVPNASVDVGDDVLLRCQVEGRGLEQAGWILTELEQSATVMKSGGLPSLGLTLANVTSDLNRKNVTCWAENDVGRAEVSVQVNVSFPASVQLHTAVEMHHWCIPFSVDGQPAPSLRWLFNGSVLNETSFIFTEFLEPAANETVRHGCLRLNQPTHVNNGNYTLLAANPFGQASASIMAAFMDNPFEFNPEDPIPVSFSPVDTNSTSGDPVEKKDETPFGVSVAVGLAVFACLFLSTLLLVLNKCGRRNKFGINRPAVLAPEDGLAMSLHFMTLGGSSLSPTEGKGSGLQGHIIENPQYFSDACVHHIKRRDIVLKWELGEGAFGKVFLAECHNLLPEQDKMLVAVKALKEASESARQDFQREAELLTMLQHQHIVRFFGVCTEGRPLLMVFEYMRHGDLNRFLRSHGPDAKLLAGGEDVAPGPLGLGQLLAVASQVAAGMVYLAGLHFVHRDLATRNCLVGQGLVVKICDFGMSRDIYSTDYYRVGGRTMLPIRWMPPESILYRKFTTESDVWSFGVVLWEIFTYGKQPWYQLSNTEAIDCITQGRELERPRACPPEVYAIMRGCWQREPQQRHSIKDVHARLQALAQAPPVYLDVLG

SMILES | Vz_obs iv (apparent distribution volume) (Rat PK evaluation; IV 1 mg/kg) [L/kg] | bioavailability (Rat PK evaluation; IV 1 mg/kg, PO 5 mg/kg) [%] | AUC(0-t) (Rat PK evaluation; [2]) [ng·h/mL] | clearance (Rat PK evaluation; IV 1 mg/kg) [mL/min/kg] | half-life (Rat PK evaluation; [3]) [min] | Tmax (Rat PK evaluation; PO 5 mg/kg) [h] | AUC(0-t) (Rat PK evaluation; [4]) [ng·h/mL] | half-life (Rat PK evaluation; [5]) [min] | IC50 (TrkC (h)) [nM] | GI50 [1] [nM]
COc1cc2nccc(Oc3cnc(NC(=O)c4cn(C(C)C)nc(-c5ccc(F)cc5)c4=O)nc3)c2cc1OC [Compound 39, N-(5-((6,7-dimethoxyquinolin-4-yl)oxy)pyrimidine-2-yl)-6-(4-fluorophenyl)-2-isopropyl-5-oxo-2,5-dihydropyridazine-4-carboxamide] | 1.21 | 90.2 | 6920 | 2.5 | 353 | 2 | 32400 | 340 | 10 | 8.1
COc1cc2nccc(Oc3ccc(NC(=O)c4nn(C5CC5)cc(-c5ccc(F)cc5)c4=O)nc3)c2cc1OC [Compound 31] | 0.14 | 27.7 | 224000 | 0.05 | 1960 | 4 | 310000 | 1150 | 3 | 1.4
COc1cc2nccc(Oc3cnc(NC(=O)c4nn(C5CC5)cc(-c5ccc(F)cc5)c4=O)nc3)c2cc1OC [Compound 33] | 0.146 | 31.7 | 55700 | 0.3 | 328 | 2 | 88800 | 284 | 5 | 3
COc1cc2nccc(Oc3ccc(NC(=O)c4cn(C(C)C)nc(-c5ccc(F)cc5)c4=O)cn3)c2cc1OC [Compound 38, N-(6-((6,7-dimethoxyquinolin-4-yl)oxy)pyridin-3-yl)-6-para-fluorophenyl-2-isopropyl-5-oxo-2,5-dihydropyridazine-4-carboxamide] | 3.32 | 81.6 | 6000 | 2.5 | 912 | 4 | 25500 | 726 | 8 | 5.7
COc1cc2nccc(Oc3ccc(NC(=O)c4nn(C(C)C)cc(-c5ccc(F)cc5)c4=O)nc3)c2cc1OC [Compound 15, N-(5-((6,7-dimethoxyquinolin-4-yl)oxy)pyridin-2-yl)-5-(4-fluorophenyl)-1-isopropyl-4-oxo-1,4-dihydropyridazine-3-carboxamide] | 1.23 | 78.9 | 18100 | 0.783 | 1110 |  | 67400 | 1230 | 6 | 0.09
COc1cc2nccc(Oc3ncc(NC(=O)c4nn(C(C)C)cc(-c5ccc(F)cc5)c4=O)cn3)c2cc1OC [Compound 34, N-(2-((6,7-dimethoxyquinolin-4-yl)oxy)pyrimidine-5-yl)-5-para-fluorophenyl-1-isopropyl-4-oxo-1,4-dihydropyridazine-3-carboxamide] | 0.15 | 80.4 | 81000 | 0.217 | 448 | 4 | 321000 | 499 | 6 | 0.68
COc1cc2nccc(Oc3ncc(NC(=O)c4cn(C(C)C)nc(-c5ccc(F)cc5)c4=O)cn3)c2cc1OC [Compound 40, N-(2-((6,7-dimethoxyquinolin-4-yl)oxy)pyrimidine-5-yl)-6-(4-fluorophenyl)-2-isopropyl-5-oxo-2,5-dihydropyridazine-4-carboxamide] | 1.84 | 63.4 | 7270 | 2.33 | 551 | 4 | 23000 | 521 | 14 | 9.1
